Values quoted from earlier work, collected in PMC9663925, “Phase I pharmacokinetic study of an oral, small-molecule MEK inhibitor tunlametinib in patients with advanced NRAS mutant melanoma” (Frontiers in Pharmacology, 2022).
Where two headings read alike, the source gives them in different places.

Cn1cnc2c(F)c(Nc3ccc(Br)cc3F)c(C(=O)NOCCO)cc21 [binimetinib]
Tmax (ref Bendell et al., 2017): 1.00 to 3.00 h

O=C(c1ccc(F)c(F)c1Nc1ccc(I)cc1F)N1CC(O)([C@@H]2CCCCN2)C1 [cobimetinib]
Tmax (ref Rosen et al., 2016): 2.4 to 3 h

Cn1cnc2c(F)c(Nc3ccc(Br)cc3Cl)c(C(=O)NOCCO)cc21 [selumetinib]
Tmax (ref Adjei et al., 2008): 1.0 to 3 h

CC(=O)Nc1cccc(-n2c(=O)n(C3CC3)c(=O)c3c(Nc4ccc(I)cc4F)n(C)c(=O)c(C)c32)c1 [trametinib]
Tmax (ref Infante et al., 2012): 1.0 to 2.08 h
